Reference: the NIST ThermoML archive (doi:10.1016/j.jct.2014.10.023)
± gives the expanded uncertainty stated by the source.

Experiment: excess molar enthalpy (molar enthalpy of mixing); xn = mol fraction of the nth substance listed
Conditions: 101 kPa, Liquid, Calvet calorimetry

[Li] [lithium] + [Ag]
Conditions	excess molar enthalpy [kcal/mol]
873 K, x1 = 0.5664	-2.79 ± 0.239
873 K, x1 = 0.5985	-2.69 ± 0.239
873 K, x1 = 0.6338	-2.57 ± 0.239
873 K, x1 = 0.6719	-2.4 ± 0.239
873 K, x1 = 0.7007	-2.25 ± 0.239
873 K, x1 = 0.7274	-2.09 ± 0.239
873 K, x1 = 0.7617	-1.87 ± 0.239
873 K, x1 = 0.7867	-1.7 ± 0.239
873 K, x1 = 0.8408	-1.22 ± 0.239
873 K, x1 = 0.8972	-0.767 ± 0.239
873 K, x1 = 0.932	-0.474 ± 0.239
873 K, x1 = 0.9771	-0.0813 ± 0.239
1253 K, x1 = 0.1002	-0.73 ± 0.335
1253 K, x1 = 0.1043	-0.754 ± 0.335
1253 K, x1 = 0.1097	-0.799 ± 0.335
1253 K, x1 = 0.1152	-0.853 ± 0.335
1253 K, x1 = 0.1205	-0.897 ± 0.335
1253 K, x1 = 0.1287	-0.956 ± 0.335
1253 K, x1 = 0.1355	-1.01 ± 0.335
1253 K, x1 = 0.1461	-1.1 ± 0.335
1253 K, x1 = 0.1583	-1.21 ± 0.335
1253 K, x1 = 0.1698	-1.35 ± 0.335
1253 K, x1 = 0.1884	-1.51 ± 0.335
1253 K, x1 = 0.1995	-1.6 ± 0.335
1253 K, x1 = 0.2187	-1.73 ± 0.335
1253 K, x1 = 0.264	-1.85 ± 0.239
1253 K, x1 = 0.2711	-1.88 ± 0.239
1253 K, x1 = 0.2851	-1.95 ± 0.239
1253 K, x1 = 0.2976	-2.02 ± 0.239
1253 K, x1 = 0.3124	-2.12 ± 0.239
1253 K, x1 = 0.3281	-2.2 ± 0.239
1253 K, x1 = 0.3503	-2.29 ± 0.239
1253 K, x1 = 0.3774	-2.42 ± 0.239
1253 K, x1 = 0.4086	-2.52 ± 0.239
1253 K, x1 = 0.4371	-2.61 ± 0.239
1253 K, x1 = 0.4847	-2.72 ± 0.239
1253 K, x1 = 0.5245	-2.75 ± 0.239
